Laboratory results from patent US12213480B2, “Biocidal formulation” (For Spills Ltd., priority 2018, dated 2025).

Experiments:
Assay in all cases: Suspension test of biocide with or without perlite, 1 minute contact
[1] = test system: Staphylococcus aureus ATCC 6538
[2] = test system: Pseudomonas aeruginosa ATCC 15442
[3] = test system: Aspergillus brasiliensis ATCC 16404

Structure (SMILES)	R reduction in viability [1] [Log 10]	Vc viable count ([1]; dilution −1, duplicate plates)	Vc viable count ([1]; dilution −2, duplicate plates)	R reduction in viability [2] [Log 10]	Vc viable count ([2]; dilution −1, duplicate plates)	Vc viable count ([2]; dilution −2, duplicate plates)	Vc viable count ([2]; dilution −3, duplicate plates)	R reduction in viability [3] [Log 10]	Vc viable count ([3]; dilution N, duplicate plates)	Vc viable count ([3]; dilution −1, duplicate plates)	Vc viable count ([3]; dilution −2, duplicate plates)	Vc viable count ([3]; dilution −3, duplicate plates)
CC1(C)C(=O)N(Cl)C(=O)N1Br [BDCMH]	1.92	>330; >330 cfu	>330; >330 cfu	1.00	>330; >330 cfu	>330; >330 cfu	>330; >330 cfu	−0.01	>165; >165 cfu	>165; >165 cfu	>165; >165 cfu	>165; >165 cfu
O=c1nc([O-])n(Cl)c(=O)n1Cl.[Na+] [Sodium Dichloroisocyanurate, sodium dichloroisocyanurate]	>6.23			3.71				2.84	>165; >165 cfu			
